The source of these data is US8471005B2 (Cephalon, Inc., priority 2008, dated 2013).

Each structure is given as a SMILES string.

One test has as its target T1, ALK (Homo sapiens, UniProt Q9UM73).
T1 construct: host or cells: baculovirus expression system
Put plainly: ALK Kinase Assay (ELISA/TRF, PLC-γ substrate). Format: biochemical. As to conditions: ALK kinase inhibition, 1 μM ATP; read-out: ALK Potency. The procedure, abridged: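 Wells were coated with 10 μg/mL phospholipase C-γ substrate in TBS, and the reaction was started by adding 30 ng/ml ALK enzyme and run at 37° C for 15 minutes. Phosphorylated product was detected with Eu-N1-labeled PT66 antibody, and IC50 values came from sigmoidal variable-slope fits of percent inhibition against log concentration.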
(ELISA stands for enzyme-linked immunosorbent assay.)

The target in a further test is T2, JAK2 (Homo sapiens, UniProt O60674).
T2 construct: host or cells: baculovirus expression system
Put plainly: Recombinant Human JAK2 Kinase Assay (TRF). The format is biochemical. To be noted: JAK2 kinase inhibition, 0.2 μM ATP; read-out: JAK2 Potency. The method, boiled down:
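Kinase activity of baculovirus-expressed JAK2 is followed on a surface-immobilised biotinylated peptide, with the reaction run for 20 min at room temperature in buffer containing 0.2 μM ATP and manganese. Phosphorylation is read with Eu-N1 PY100 antibody.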

T1 sequence (Q9UM73 19-1620): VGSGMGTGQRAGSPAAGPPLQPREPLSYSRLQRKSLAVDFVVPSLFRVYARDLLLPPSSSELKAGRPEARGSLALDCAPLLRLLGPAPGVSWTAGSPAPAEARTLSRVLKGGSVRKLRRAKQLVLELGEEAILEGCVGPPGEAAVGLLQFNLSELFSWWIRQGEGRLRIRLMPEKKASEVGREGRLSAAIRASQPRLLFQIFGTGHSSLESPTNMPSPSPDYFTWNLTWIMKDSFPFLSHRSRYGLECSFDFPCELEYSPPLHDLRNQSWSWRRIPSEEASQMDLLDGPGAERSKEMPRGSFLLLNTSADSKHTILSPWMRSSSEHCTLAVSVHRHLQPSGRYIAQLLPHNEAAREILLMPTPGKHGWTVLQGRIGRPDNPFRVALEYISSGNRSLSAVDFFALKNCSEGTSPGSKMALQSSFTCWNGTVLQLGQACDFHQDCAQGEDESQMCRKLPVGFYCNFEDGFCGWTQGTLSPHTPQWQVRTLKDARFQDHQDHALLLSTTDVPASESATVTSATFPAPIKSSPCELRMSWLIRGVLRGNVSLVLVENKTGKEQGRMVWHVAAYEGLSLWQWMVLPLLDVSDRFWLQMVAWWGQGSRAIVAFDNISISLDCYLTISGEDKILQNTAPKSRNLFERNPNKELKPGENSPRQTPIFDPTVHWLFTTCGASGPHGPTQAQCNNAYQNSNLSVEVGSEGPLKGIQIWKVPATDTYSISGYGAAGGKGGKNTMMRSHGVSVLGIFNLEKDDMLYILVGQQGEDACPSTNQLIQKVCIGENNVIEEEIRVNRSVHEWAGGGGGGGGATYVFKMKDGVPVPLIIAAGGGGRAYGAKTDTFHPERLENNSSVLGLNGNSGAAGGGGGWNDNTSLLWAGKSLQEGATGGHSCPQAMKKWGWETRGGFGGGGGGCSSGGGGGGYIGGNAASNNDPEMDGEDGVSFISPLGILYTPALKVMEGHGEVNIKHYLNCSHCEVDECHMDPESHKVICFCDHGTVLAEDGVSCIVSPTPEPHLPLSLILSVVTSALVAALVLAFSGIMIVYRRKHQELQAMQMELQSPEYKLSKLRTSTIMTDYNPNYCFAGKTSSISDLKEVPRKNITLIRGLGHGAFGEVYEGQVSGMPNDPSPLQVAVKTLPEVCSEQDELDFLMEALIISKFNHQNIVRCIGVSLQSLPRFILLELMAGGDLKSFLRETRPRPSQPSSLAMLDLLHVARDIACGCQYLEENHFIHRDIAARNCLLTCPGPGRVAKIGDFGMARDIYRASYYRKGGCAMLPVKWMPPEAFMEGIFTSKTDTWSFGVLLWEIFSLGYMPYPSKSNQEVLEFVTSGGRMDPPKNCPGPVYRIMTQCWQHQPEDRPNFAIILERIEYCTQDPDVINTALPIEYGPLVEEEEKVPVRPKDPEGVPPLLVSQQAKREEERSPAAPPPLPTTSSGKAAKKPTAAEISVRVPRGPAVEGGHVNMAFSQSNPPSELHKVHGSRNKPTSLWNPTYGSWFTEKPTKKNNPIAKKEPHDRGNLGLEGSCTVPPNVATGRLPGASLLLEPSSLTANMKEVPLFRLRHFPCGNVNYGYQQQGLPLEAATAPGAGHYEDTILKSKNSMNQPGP
T2 sequence (O60674 whole entry): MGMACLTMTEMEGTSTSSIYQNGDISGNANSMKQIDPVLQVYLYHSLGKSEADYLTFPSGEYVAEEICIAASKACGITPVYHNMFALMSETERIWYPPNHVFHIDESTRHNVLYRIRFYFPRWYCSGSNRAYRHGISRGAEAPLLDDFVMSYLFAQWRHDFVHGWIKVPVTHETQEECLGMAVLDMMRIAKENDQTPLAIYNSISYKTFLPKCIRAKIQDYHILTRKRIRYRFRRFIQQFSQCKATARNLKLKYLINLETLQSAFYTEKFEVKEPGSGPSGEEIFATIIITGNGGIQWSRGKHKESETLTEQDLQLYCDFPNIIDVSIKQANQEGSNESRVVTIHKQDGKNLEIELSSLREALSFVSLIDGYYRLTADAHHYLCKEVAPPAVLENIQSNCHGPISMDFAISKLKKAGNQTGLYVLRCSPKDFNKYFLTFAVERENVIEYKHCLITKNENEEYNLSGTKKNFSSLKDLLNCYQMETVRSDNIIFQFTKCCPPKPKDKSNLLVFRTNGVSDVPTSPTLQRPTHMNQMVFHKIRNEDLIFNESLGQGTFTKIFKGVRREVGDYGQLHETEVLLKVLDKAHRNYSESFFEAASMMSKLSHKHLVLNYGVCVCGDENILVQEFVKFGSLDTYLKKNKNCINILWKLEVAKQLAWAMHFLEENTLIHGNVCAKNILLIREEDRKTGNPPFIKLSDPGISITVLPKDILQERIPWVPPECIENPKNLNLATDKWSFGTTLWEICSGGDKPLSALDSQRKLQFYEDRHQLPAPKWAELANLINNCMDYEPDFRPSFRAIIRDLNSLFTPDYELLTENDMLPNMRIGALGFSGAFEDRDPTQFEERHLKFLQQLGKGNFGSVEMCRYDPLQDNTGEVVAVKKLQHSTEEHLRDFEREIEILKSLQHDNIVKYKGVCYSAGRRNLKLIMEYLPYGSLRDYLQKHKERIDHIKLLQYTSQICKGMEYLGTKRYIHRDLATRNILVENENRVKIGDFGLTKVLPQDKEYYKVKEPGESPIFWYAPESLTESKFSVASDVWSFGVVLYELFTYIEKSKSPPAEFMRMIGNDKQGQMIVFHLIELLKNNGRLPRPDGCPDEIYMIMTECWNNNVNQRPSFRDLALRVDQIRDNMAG

Take `Cc1nc2cc(Nc3ncc4ccc(-c5cccc(S(=O)(=O)NC(C)(C)C)c5)n4n3)ccc2o1` [Example 600, N-tert-Butyl-3-[2-(2-methyl-benzoxazol-5-ylamino)-pyrrolo[2,1-f][1,2,4]triazin-7-yl]-benzenesulfonamide]: the IC50 on ALK was 1000 to 10000 nM; at JAK2, under 100 nM.
Turning to `COc1ccccc1-c1ccc2cnc(Nc3cccc(OC4CCNCC4)c3)nn12` [Example 601, [7-(2-Methoxy-phenyl)-pyrrolo[2,1-f][1,2,4]triazin-2-yl]-[3-(piperidin-4-yloxy)-phenyl]-amine], the IC50 at ALK was 100 to 1000 nM; at JAK2, under 100 nM.
The matching figures for `CS(=O)(=O)c1cccc(-c2ccc3cnc(Nc4ccc5c(c4)CCC(N4CCOCC4)CC5)nn23)c1` (stereo not shown) [Example 611, [7-(3-Methanesulfonyl-phenyl)-pyrrolo[2,1-f][1,2,4]triazin-2-yl]-(7-morpholin-4-yl-6,7,8,9-tetrahydro-5H-benzocyclohepten-2-yl)-amine]: 100 to 1000 nM and under 100 nM.
The matching figures for `CS(=O)(=O)c1ccc(-c2ccc3cnc(Nc4ccc5c(c4)CCC(N4CCOCC4)CC5)nn23)cc1` (stereo not shown) [Example 612, [7-(4-Methanesulfonyl-phenyl)-pyrrolo[2,1-f][1,2,4]triazin-2-yl]-(7-morpholin-4-yl-6,7,8,9-tetrahydro-5H-benzocyclohepten-2-yl)-amine]: 100 to 1000 nM and under 100 nM.
For `C1=C(c2ccc3cnc(Nc4ccc(N5CCOCC5)cc4)nn23)CCSC1` [Example 613, [7-(3,6-Dihydro-2H-thiopyran-4-yl)-pyrrolo[2,1-f][1,2,4]triazin-2-yl]-(4-morpholin-4-yl-phenyl)-amine] the same measures were 1000 to 10000 nM and under 100 nM.
For the compound `COc1ccccc1-c1ccc2cnc(Nc3ccc4c(c3)CCC(N3CCOCC3)CC4)nn12` (stereo not shown) [Example 614, [7-(2-methoxy-phenyl)-pyrrolo[2,1-f][1,2,4]triazin-2-yl]-(7-morpholin-4-yl-6,7,8,9-tetrahydro-5H-benzocyclohepten-2-yl)amine], the IC50 on ALK and at JAK2 was under 100 nM each time.
With `CN(c1ccccc1-c1ccc2cnc(Nc3ccc4c(c3)CCC(N3CCOCC3)CC4)nn12)S(C)(=O)=O` (stereo not shown) [Example 615, N-Methyl-N-{2-[2-(7-morpholin-4-yl-6,7,8,9-tetrahydro-5H-benzocyclohepten-2-ylamino)-pyrrolo[2,1-f][1,2,4]triazin-7-yl]-phenyl}-methanesulfonamide], the IC50 on ALK and on JAK2 was under 100 nM throughout.
For the compound `CN1CCOCc2cc(Nc3ncc4ccc(-c5ccccc5N(C)S(C)(=O)=O)n4n3)ccc21` [Example 616, N-Methyl-N-{2-[2-(1-methyl-1,2,3,5-tetrahydro-benzo[e][1,4]oxazepin-7-ylamino)-pyrrolo[2,1-f][1,2,4]triazin-7-yl]-phenyl}-methanesulfonamide], the values for the IC50 at ALK and on JAK2 were 100 to 1000 nM and under 100 nM, respectively.
The matching figures for `CN1CCOCc2cc(Nc3ncc4ccc(-c5ccc(S(C)(=O)=O)cc5)n4n3)ccc21` [Example 617, [7-(4-Methanesulfonyl-phenyl)-pyrrolo[2,1-f][1,2,4]triazin-2-yl]-(1-methyl-1,2,3,5-tetrahydro-benzo[e][1,4]oxazepin-7-yl)-amine]: 1000 to 10000 nM and under 100 nM.
The matching figures for `COc1ccccc1-c1ccc2cnc(Nc3ccc4c(c3)COCCN4C)nn12` [Example 618, [7-(2-Methoxy-phenyl)-pyrrolo[2,1-f][1,2,4]triazin-2-yl]-(1-methyl-1,2,3,5-tetrahydro-benzo[e][1,4]oxazepin-7-yl)-amine]: 100 to 1000 nM and under 100 nM.
The matching figures for `CN1CCOCc2cc(Nc3ncc4ccc(-c5cccc(NS(C)(=O)=O)c5)n4n3)ccc21` [Example 619, N-{3-[2-(1-Methyl-1,2,3,5-tetrahydro-benzo[e][1,4]oxazepin-7-ylamino)-pyrrolo[2,1-f][1,2,4]triazin-7-yl]-phenyl}-methanesulfonamide]: 100 to 1000 nM and under 100 nM.
Consider `CN1CCN(c2ccc(Nc3ncc4ccc(C5=CCC(S(C)(=O)=O)CC5)n4n3)cc2)CC1` (stereo not shown) [Example 620, [7-(4-Methanesulfonyl-cyclohex-1-enyl)-pyrrolo[2,1-f][1,2,4]triazin-2-yl]-[4-(4-methyl-piperazin-1-yl)-phenyl]-amine], for which the IC50 at ALK was 100 to 1000 nM; at JAK2, under 100 nM.
The matching figures for `CN(c1ccccc1-c1ccc2cnc(Nc3ccc(Cn4ccnc4)cc3)nn12)S(C)(=O)=O` [Example 621, N-{2-[2-(4-Imidazol-1-ylmethylphenylamino)-pyrrolo[2,1-f][1,2,4]triazin-7-yl]phenyl}-N-methyl-methanesulfonamide]: under 100 nM and under 100 nM.
For `CN(c1ccccc1-c1ccc2cnc(-n3ccnc3)nn12)S(C)(=O)=O` [Example 622, N-[2-(2-Imidazol-1-yl-pyrrolo[2,1-f][1,2,4]triazin-7-yl)-phenyl]-N-methyl-methanesulfonamide] the same measures were 1000 to 10000 nM and under 100 nM.
With `CN(c1ccccc1-c1ccc2cnc(Nc3ccc4c(c3)CCCC(=O)N4)nn12)S(C)(=O)=O` [Example 623, N-Methyl-N-{2-[2-(2-oxo-2,3,4,5-tetrahydro-1H-benzo[b]azepin-7-ylamino)-pyrrolo[2,1-f][1,2,4]triazin-7-yl]-phenyl}-methanesulfonamide], the IC50 on ALK and at JAK2 was under 100 nM throughout.
Take `CN(c1ccccc1-c1ccc2cnc(Nc3ccc(N4CCOCC4)cc3)nn12)S(C)(=O)=O` [Example 626, N-Methyl-N-{2-[2-(4-morpholin-4-yl-phenylamino)pyrrolo[2,1-f][1,2,4]triazin-7-yl]phenyl}methanesulfonamide]: the results for the IC50 at ALK and at JAK2 were 100 to 1000 nM and under 100 nM, respectively.
Consider `Cc1cc(Nc2ncc3ccc(-c4ccccc4N(C)S(C)(=O)=O)n3n2)cc2oc(=O)[nH]c12` [Example 628, N-Methyl-N-{2-[2-(4-methyl-2-oxo-2,3-dihydrobenzooxazol-6-ylamino)-pyrrolo[2,1-f][1,2,4]triazin-7-yl]phenyl}methanesulfonamide], for which the IC50 at ALK was 100 to 1000 nM; at JAK2, under 100 nM.
The matching figures for `CC(=O)N1CCCCc2ccc(Nc3ncc4ccc(-c5ccccc5N(C)S(C)(=O)=O)n4n3)cc21` [Example 630, N-{2-[2-(1-Acetyl-2,3,4,5-tetrahydro-1H-benzo[b]azepin-8-ylamino)-pyrrolo[2,1-f][1,2,4]triazin-7-yl]phenyl}-N-methylmethanesulfonamide]: 1000 to 10000 nM and under 100 nM.
`COc1ccc(-c2ccc3cnc(Nc4ccc5c(c4)N(C(C)=O)CCCC5)nn23)cn1` [Example 631, 1-{8-[7-(6-Methoxy-pyridin-3-yl)-pyrrolo[2,1-f][1,2,4]triazin-2-ylamino]-2,3,4,5-tetrahydro-benzo[b]azepin-1-yl}ethanone]: the results for the IC50 at ALK and at JAK2 were over 10000 nM and under 100 nM, respectively.
For `CN(c1ccccc1-c1ccc2cnc(Nc3ccc4c(c3)C(C)(C)C(=O)N4)nn12)S(C)(=O)=O` [Example 632, N-{2-[2-(3,3-Dimethyl-2-oxo-2,3-dihydro-1H-indol-5-ylamino)-pyrrolo[2,1-f][1,2,4]triazin-7-yl]phenyl}N-methyl-methanesulfonamide] the same measures were under 100 nM and under 100 nM.
For the compound `CC(=O)N1CCCCc2ccc(Nc3ncc4ccc(-c5cccc(NS(C)(=O)=O)c5)n4n3)cc21` [Example 633, N-{3-[2-(1-Acetyl-2,3,4,5-tetrahydro-1H-benzo[b]azepin-8-ylamino)-pyrrolo[2,1-f][1,2,4]triazin-7-yl]-phenyl}methanesulfonamide], the figures for the IC50 on ALK and at JAK2 were 1000 to 10000 nM and under 100 nM, respectively.
As to `CN(c1ccccc1-c1ccc2cnc(OC3CCN(c4ccc(N)cc4)CC3)nn12)S(C)(=O)=O` [Example 634, N-(2-{2-[1-(4-Amino-phenyl)-piperidin-4-yloxy]-pyrrolo[2,1-f][1,2,4]triazin-7-yl}-phenyl)-N-methyl-methanesulfonamide], the IC50 at ALK was 1000 to 10000 nM; at JAK2 it was 100 to 1000 nM.
The matching figures for `CN(c1ccccc1-c1ccc2cnc(Nc3ccc(N4CCC(O)CC4)cc3)nn12)S(C)(=O)=O` [Example 635, N-(2-{2-[4-(4-Hydroxy-piperidin-1-yl)-phenylamino]pyrrolo[2,1-f][1,2,4]triazin-7-yl}phenyl)-N-methylmethanesulfonamide]: 100 to 1000 nM and under 100 nM.
For `CS(=O)(=O)Nc1cccc(-c2ccc3cnc(Nc4ccc(N5CCC(N6CCOCC6)CC5)cc4)nn23)c1` [Example 636, N-(3-{2-[4-(4-Morpholin-4-yl-piperidin-1-yl)-phenylamino]-pyrrolo[2,1-f][1,2,4]triazin-7-yl}-phenyl)-methanesulfonamide] the same measures were 100 to 1000 nM and under 100 nM.
Regarding `COc1ccc(-c2ccc3cnc(Nc4ccc5c(c4)COCCN5C)nn23)cn1` [Example 637, [7-(6-Methoxy-pyridin-3-yl)-pyrrolo[2,1-f][1,2,4]triazin-2-yl]-(1-methyl-1,2,3,5-tetrahydro-benzo[e][1,4]oxazepin-7-yl)-amine], the IC50 at ALK is 1000 to 10000 nM; on JAK2, under 100 nM.
The matching figures for `CN1C(=O)COc2cc(Nc3ncc4ccc(-c5cccc(NS(C)(=O)=O)c5)n4n3)ccc21` [Example 638, N-{3-[2-(4-Methyl-3-oxo-3,4-dihydro-2H-benzo[1,4]oxazin-7-ylamino)-pyrrolo[2,1-f][1,2,4]triazin-7-yl]-phenyl}methanesulfonamide]: 100 to 1000 nM and under 100 nM.
